Experimental data taken from patent US10526646B2, “Chromogenic peroxidase substrates” (Dako Denmark A/S, priority 2015, dated 2020).
Converted amounts (≈) assume the structure as drawn.

Legend:
[1] = UV-VIS absorbance maxima of chromogenic conjugates and mixtures; assay type: physicochemical
Procedure: “Spectrally narrow” refers to a chromogen having less that 50 nm broadness at its maximum absorbance at half peak height by UV-VIS spectroscopy, measured in +99% water at pH, 6-8 in 10 μM concentration. A “magenta chromogen” is a spectrally narrow chromogen with peak absorbance between 525 and 530 nm, measured in +99% water at pH, 6.0-8.0 in 10 μM concentration. A “greenish-yellow chromogen” is a chromogen with peak absorbance below 475 nm and less than 10% absorbance at 530 nm or above relative to the peak absorbance, measured in +99% water at pH, 6.0-8.0 in 10 μM concentration. A “yellow chromogen” is a chromogen with peak absorbance below 505 nm and less than 10% absorbance at 530 nm or above relative to the peak absorbance, measured in +99% water at pH, 6.0-8.0 in 10 μM concentration. A “cyan chromogen” is a chromogen having maximal absorbance above 615 nm and less than 10% relative absorbance at any wavelength between 530 and 400 nm relative to the peak absorbance, measured in +99% water at pH, 6.0-8.0 m 10 μM concentration. An “orange chromogen” is a “spectrally narrow” chromogen that has maximum absorbance between 495 and 520 nm, measured in +99% water at pH, 6-8 in 10 μM concentration. A “dichroic chromogen” is a chromogen that has at least two absorbance maxima, separated by a local minimum at least 50 nm wide and one further global minimum between 390 and 700 nm measured in water between pH 6 and 8.

HRP [2] = molecular target: T1, HRP (Armoracia rusticana, UniProt P00433); assay: IHC staining of FFPE human tissues and Her2 control cell lines, Envision+ Dual link HRP visualization, DAB as reference; design: species or system horse radish; settings: for colour of IHC stain / stain intensity and crispness compared with DAB: tested in 0.4 to 1 mM; for stain intensity and crispness compared with DAB: low and medium expression targets; for IHC staining performance of Rhodamine 6G derivatives with different 4-hydroxy cinnamic acid derivatives: peroxidase substrate moiety varied
T1 construct: purchased Dako K4061
T1 sequence (P00433 31-338): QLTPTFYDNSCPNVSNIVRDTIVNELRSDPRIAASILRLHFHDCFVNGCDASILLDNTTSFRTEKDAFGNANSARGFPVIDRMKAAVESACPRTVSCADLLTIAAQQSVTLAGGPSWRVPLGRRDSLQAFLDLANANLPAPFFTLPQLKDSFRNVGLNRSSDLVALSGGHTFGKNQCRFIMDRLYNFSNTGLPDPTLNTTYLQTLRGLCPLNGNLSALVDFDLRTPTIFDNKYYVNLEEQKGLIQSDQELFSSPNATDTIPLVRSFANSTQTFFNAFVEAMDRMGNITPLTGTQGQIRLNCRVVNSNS

[3] = Solubility in substrate buffer as function of percentage of NMP; assay type: physicochemical
Procedure: Only Compound 6 having a piperazine amide stands out by absorbing at 536 nm, around 5 nm above the esters comprising Compounds 2, 13, 14 and 15 all with abs max within 531-533 nm. […] Addition of NMP to the buffer in all cases increased chromogen solubility. See result table below of the solubility of 2, 13 and 15 as function of percentage of NMP as organic co solvent, 0% representing neat aqueous buffer 50 mM imidazole: HCl, pH 6.8, 3% and 10% said percent.

HRP [4] = molecular target: T1, HRP; assay: Tissue staining with mixtures of chromogens in chromogen buffer; design: species or system horse radish; settings: alone
HRP [5] = molecular target: T1, HRP; assay: Triple immunohistochemical staining (Ki67, CD20, Her2) on Dako Autostainer; design: species or system horse radish; settings: 0.5 mM conjugate, 50 mM imidazole:HCl pH 6.8, 0.003% hydrogen peroxide, 2.5% NMP, 5 min
Procedure: The exemplary triple staining method employed DAB in combination with Compounds 2 and 8, on a Dako Autostainer at room temperature. The steps of the method included: • 1. Blocking of endogenous peroxidase with peroxidase block (Dako S2023), 5 min. • 2. antiKi67 RTU antibody (Dako IR626), 20 mm • 3. Envision+dual Link HRP (Dako K4061), 20 min • 4. DAB (Dako K3468) 5 min. • 5. HRP quenching with peroxidase block (Dako S2023) with addition of 5 mg/mL alphacyano cinnamic acid, 5 min. • 6. antiCD20cy RTU antibody (Dako IR604), 20 min • 7. Envision+dual Link HRP (Dako K4061), 20 min • 8. 0.5 mM compound 2 in 50 mM imidazole: HCl pH 6.8, 0.003% hydrogen peroxide and 2.5% NMP, 5 min. • 9. HRP quenching with peroxidase block (Dako S2023) with addition of 5 mg/mL alphacyano cinnamic acid, 5 min. • 10. antiHer2 (Dako vial ST301 from HercepTest kit SK001) 20 min. • 11. Envision+dual Link HRP (Dako K4061), 20 min • 12. 0.5 mM compound 8 in 50 mM imidazole: HCl pH 6.8, 0.003% hydrogen peroxide and 2.5% NMP, 5 min. • 13. Counter stain with haematoxylin (Dako S3301)

[6] = imidazole:HCl buffer (substrate buffer) with 3% NMP, aqueous buffer, 3% NMP in 50 mM imidazole:HCl pH 6.8
[7] = imidazole:HCl buffer (substrate buffer) with 10% NMP, aqueous with cosolvent or surfactant or cyclodextrin, 10% NMP in 50 mM imidazole:HCl pH 6.8
[8] = imidazole:HCl buffer (substrate buffer), 0% NMP, neat aqueous buffer 50 mM imidazole:HCl pH 6.8

SMILES	Absp nm (max) [1]	colour of IHC stain (HRP [2])	stain intensity and crispness compared with DAB (HRP [2])	other results
CC/N=c1\cc2oc3cc(NCC)c(C)cc3c(-c3ccccc3C(=O)N3CCN(C(=O)c4ccc(-c5c6ccc(=O)cc-6oc6cc(O)ccc56)c(C(=O)O)c4)CC3)c-2cc1C [6G compound]	–	–	–	colour of the compound as chromogen [1]: orange
N=c1ccc2c(-c3ccccc3C(=O)OCC(=O)NCCOCCOCCNC(=O)/C=C/c3ccc(O)cc3)c3ccc(N)cc3oc-2c1 [Compound 1, Rhodamine 110-L12-Cou]	505 nm	–	–	–
CN(C)c1ccc2c(-c3ccccc3C(=O)OCC(=O)NCCOCCOCCNC(=O)/C=C/c3ccc(O)cc3)c3ccc(=[N+](C)C)cc-3oc2c1 [Compound 3, TetramethylRhodamine-L12-Cou]	556 nm	slightly redish purple stains	more than matched DAB in intensity and crispness	–
CCN(CC)c1ccc2c(-c3ccccc3C(=O)OCC(=O)NCCOCCOCCNC(=O)/C=C/c3ccc(O)cc3)c3ccc(=[N+](CC)CC)cc-3oc2c1 [Compound 4, RhodamineB-L12-Cou]	561 nm	purple stains	matched DAB in intensity and crispness	–
O=C(/C=C/c1ccc(O)cc1)NCCOCCOCCNC(=O)COC(=O)c1ccccc1C1=c2cc3c4c(c2Oc2c1cc1c5c2CCCN5CCC1)CCC[N+]=4CCC3 [Compound 5, Rhodamine101-L12-Cou]	584 nm	–	–	–
CC/N=c1\cc2oc3cc(NCC)c(C)cc3c(-c3ccccc3C(=O)N3CCN(CC(=O)NCCOCCOCCNC(=O)/C=C/c4ccc(O)cc4)CC3)c-2cc1C [Compound 6, Rhodamine 6G-Pip-L12-Cou]	536 nm	slightly purplish red stains	matched DAB in intensity and crispness	solubility in the substrate buffer relative to Compound 2 [3]: significantly increased solubility
CN(C)c1ccc2c(-c3ccccc3C(=O)N3CCN(CC(=O)NCCOCCOCCNC(=O)/C=C/c4ccc(O)cc4)CC3)c3ccc(=[N+](C)C)cc-3oc2c1 [Compound 7, TM-Rhodamine-Pip-L12-Cou]	561 nm	–	–	–
O=C(O)COc1ccc2c(-c3ccccc3C(=O)OCC(=O)NCCOCCOCCNC(=O)/C=C/c3ccc(O)cc3)c3ccc(=O)cc-3oc2c1 [Compound 9, (O-carboxymethyl)-Flu-L12-Cou]	458 nm	slightly greenish yellow stains	almost matched DAB in intensity	colour of stain of compound alone (HRP [4]): unpleasing greenish yellow
O=C(/C=C/c1ccc(O)cc1)NCCOCCOCCNC(=O)COC(=O)c1ccccc1-c1c2ccc(=O)cc-2oc2cc(O)ccc12 [Compound 10, Flu-L12-Cou]	503 nm	–	–	colour of stain of compound alone (HRP [4]): brownish hue
O=C(/C=C/c1ccc(O)cc1)NCCOCCOCCNC(=O)COC(=O)c1ccccc1-c1c2cc(Cl)c(=O)cc-2oc2cc(O)c(Cl)cc12 [Compound 11, 2,7Dichloro-Flu-L12-Cou]	517 nm	–	–	–
O=C(/C=C/c1ccc(O)cc1)NCCOCCOCCNC(=O)CN1CCN(C(=O)c2ccccc2-c2c3ccc(=O)cc-3oc3cc(O)ccc23)CC1 [Compound 12, Flu-Pip-L12-Cou]	508 nm	–	–	–
CC/N=c1\cc2oc3cc(NCC)c(C)cc3c(-c3ccccc3C(=O)OCC(=O)NCCNC(=O)/C=C/c3ccc(O)cc3)c-2cc1C [Compound 13, Rho6G-L6-Cou]	532 nm	red stains	matched DAB in intensity and crispness	solubility [3, 6]: 900 µM (≈ 595 µg/mL); solubility [3, 7]: 1800 µM (≈ 1190 µg/mL); solubility [3, 8]: 500 µM (≈ 330 µg/mL); solubility in the substrate buffer relative to Compound 2 [3]: reduced solubility
CC/N=c1\cc2oc3cc(NCC)c(C)cc3c(-c3ccccc3C(=O)OCCN3CCN(CC(=O)NCCOCCOCCNC(=O)/C=C/c4ccc(O)cc4)CC3)c-2cc1C [Compound 14, Rhodamine 6G-Et-Pip-L12-Cou]	531 nm	red stains	matched DAB in intensity and crispness	solubility in the substrate buffer relative to Compound 2 [3]: significantly increased solubility
CC/N=c1\cc2oc3cc(NCC)c(C)cc3c(-c3ccccc3C(=O)OCC(=O)NCCOCCOCCNC(=O)COCC(=O)NCCOCCOCCNC(=O)/C=C/c3ccc(O)cc3)c-2cc1C [Compound 15, Rho6G-L27-Cou]	533 nm	deep blue stains	more than matched DAB in intensity and crispness	solubility [3, 6]: 1900 µM (≈ 1890 µg/mL); solubility [3, 7]: 6000 to 7000 µM (≈ 5970 to 6970 µg/mL); solubility [3, 8]: 1700 µM (≈ 1690 µg/mL); solubility in the substrate buffer relative to Compound 2 [3]: significantly increased solubility
CC/N=c1\cc2oc3cc(NCC)c(C)cc3c(-c3ccccc3C(=O)OCC(=O)NCCOCCOCCNC(=O)/C=C/c3ccc(O)c(O)c3)c-2cc1C [Compound 16, Rhodamine 6G-L12-Caf]	531 nm	–	–	IHC staining performance of Rhodamine 6G derivatives with different 4-hydroxy cinnamic acid derivatives (HRP [2]): performed poorly
CC/N=c1\cc2oc3cc(NCC)c(C)cc3c(-c3ccccc3C(=O)OCC(=O)NCCOCCOCCNC(=O)/C=C/c3ccc(O)cc3O)c-2cc1C [Compound 17, Rhodamine 6G-L12-2,4-OH-Cin]	531 nm	–	–	IHC staining performance of Rhodamine 6G derivatives with different 4-hydroxy cinnamic acid derivatives (HRP [2]): strong stains but also some background
CC/N=c1\cc2oc3cc(NCC)c(C)cc3c(-c3ccccc3C(=O)OCC(=O)NCCOCCOCCNC(=O)/C=C/c3ccc(O)c(OC)c3)c-2cc1C [Compound 18, Rhodamine 6G-12-Fer]	531 nm	–	–	IHC staining performance of Rhodamine 6G derivatives with different 4-hydroxy cinnamic acid derivatives (HRP [2]): performed acceptably
CC/N=c1\cc2oc3cc(NCC)c(C)cc3c(-c3ccccc3C(=O)OCC(=O)NCCOCCOCCNC(=O)/C=C/c3cc(OC)c(O)c(OC)c3)c-2cc1C [Compound 19, Rhodamine 6G-L12-Sin]	531 nm	–	–	IHC staining performance of Rhodamine 6G derivatives with different 4-hydroxy cinnamic acid derivatives (HRP [2]): performed poorly
CNCCNC [Compound 34A, N,N′-dimethyl ethylenediamine]	–	–	–	absorbance of Rhodamine 6G secondary amide / ester derivatives [1]: 531 nm
CCN(CC)c1ccc(C(=C2C=CC(=[N+](CC)CC)C=C2)c2cc(OCC(=O)NCCOCCOCCNC(=O)/C=C/c3ccc(O)cc3)c(S(=O)(=O)O)cc2S(=O)(=O)O)cc1 [Compound 35]	–	–	–	absorbance maximum ([1]; in neutral water): 640 nm
Nc1ccc(-c2ccc(N)c(N)c2)cc1N [DAB, 3,3′-diaminobenzidine, reference compound]	–	–	–	stain produced in triple staining (HRP [5]): brown ki67 nuclear stain; staining in the high expression range (HRP [2]; very high expression targets, trained observers): tended to over-stain and blackout morphological details
CC/N=c1\cc2oc3cc(NCC)c(C)cc3c(-c3ccccc3C(=O)N3CCN(C(=O)c4ccccc4-c4c5ccc(=O)cc-5oc5cc(OCC(=O)NCCOCCOCCNC(=O)OC(C)(C)C)ccc45)CC3)c-2cc1C [Formula XIVb]	–	–	–	colour of the compound as chromogen [1]: orange-red color
